Laboratory results published in patent publication US11564927B2, “Therapeutic compositions, combinations, and methods of use” (Verastem, Inc., priority 2015, dated 2023).

Experiments:
[1] = tested on: Primary human CD8+ T-cells; assay: CD8+ T-cell proliferation, BrdU incorporation; type: cell-based; conditions: 72 hours, anti-CD3/anti-CD28 coated beads, BrdU incorporation (FIG. 1)
Method: Primary human CD8+ T-cells isolated from healthy donor PBMCs were incubated in the presence of anti-CD^3/anti-CD28 coated beads with increasing concentrations of VS-4718 or VS-6063 for 72-hours and assayed for BrdU incorporation as a measure of new DNA synthesis.
CD8+ T cells were isolated from fresh, healthy human PBMCs by negative immunomagnetic bead separation. Purified CD8+ T cells were plated on CD3-coated plates in the presence or absence of VS-4718, VS-6063, or GSK2256098 for 72 hours. Assay wells were pulsed with BrdU for the last 3-4 hours of culture and subjected to a BrdU-incorporation assay for the determination of actively proliferating cells. Data shown in FIG. 5 are presented as fold-change vs. DMSO control wells.

[2] = tested on: syngeneic MC38 colorectal tumors; assay: Survival of mice bearing MC38 colorectal tumors; type: in vivo, mouse
Method: Based on the inhibition of tumor-associated macrophages and enhancement of CD8+ T-cells, potentiation of FAK/PYK2 inhibitors on the anti-tumor efficacy of an anti-PD-1 monoclonal antibody in syngeneic mouse tumor models was investigated. Mice bearing established syngeneic MC38 colorectal tumors were treated with VS-4718 for 5 days before combination treatment with anti-PD1 antibody along with continued VS-4718 administration. Combination of VS-4718 with anti-PD1 extended the median overall survival to 42 days relative to 21, 25 and 28 day median overall survival with vehicle control, single agent anti-PD-1 and single agent VS-4718, respectively (FIG. 2).

| SMILES | proliferation of CD8+ cytotoxic T-cells [1] | mice still surviving ([2]; day 56, MC38 model) | median overall survival ([2]; mice with established MC38 tumors, VS-4718 for 5 days before combination with anti-PD1 (FIG. 2)) |
| --- | --- | --- | --- |
| Cc1nc(Nc2ncc(C(=O)Nc3c(C)cccc3Cl)s2)cc(N2CCN(CCO)CC2)n1 [dasatinib] | potently impair the proliferation | – | – |
| CC(=O)Nc1cccc(-n2c(=O)n(C3CC3)c(=O)c3c(Nc4ccc(I)cc4F)n(C)c(=O)c(C)c32)c1 [trametinib] | potently impair the proliferation | – | – |
| CNC(=O)c1ccccc1Nc1cc(Nc2ccc(N3CCOCC3)cc2OC)ncc1C(F)(F)F [VS-4718] | stimulate proliferation | no surviving mice | 28 days |
